Earlier results in US9327003B2, “Use of foti to enhance stem cell mobilization and proliferation” (Stemtech International, Inc., priority 2011, dated 2016).

B1: G-CSF: granulocyte colony-stimulating factor or recombinant forms thereof (protein, UniProt P09919 31-207, looked up)
Granulocyte …: TPLGPASSLPQSFLLKCLEQVRKIQGDGAALQEKLVSECATYKLCHPEELVLLGHSLGIPWAPLSSCPSQALQLAGCLSQLHSGLFLYQGLLQALEGISPELGPTLDTLQLDVADFATTIWQQMEELGMAPALQPTQGAMPAFASAFQRRAGGVLVASHLQSFLEVSYRVLRHLAQP

Columns and labels:
[1] = including hemorrhaging, rupturing of the spleen, bloody sputum, bone disorders
circulating HSC = details: injection / administration

Row | Molecule | side effects [1] | time course of elevating circulating HSC numbers (circulating HSC) | other results
1 | OC[C@H]1O[C@@H](Oc2c(O)cc(O)cc2C=Cc2ccc(O)cc2)[C@H](O)[C@@H](O)[C@@H]1O [2,3,5,4′-tetrahydroxystilbene-2-O-β-d-glycoside] |  |  | stability in aqueous solutions: readily degrade in aqueous solutions in a temperature and pH dependent manner
2 | c1cc(CN2CCCNCCNCCCNCC2)ccc1CN1CCCNCCNCCCNCC1 [AMD3100, reference compound] | significant side effects |  | 
3 | G-CSF: granulocyte colony-stimulating factor or recombinant forms thereof |  | requires days to achieve peak circulating HSC numbers | 
4 | IL-8: interleukin-8 |  | acts only within minutes and has a short-lived effect | 
5 | B1 | significant side effects |  | 
